The source of these data is patent US20120148682A1.

The test system of data set [1] is Staphylococcus aureus, Escherichia coli, Aspergillus niger and A. flavus. Conditions: Proceedings of the National Academy of Sciences, India 1991; cited from earlier work.
Data set [2] has as its system Leptosphaeria nodorum (LEPTNO). The data set is described as follows: In vitro fungitoxicity (growth inhibition) in copper-minus and copper-plus medium. The format is cell-based. As to the method: Trace elements (minus CuSO4), and vitamins described by Coursen and […] were added from concentrated stock solutions and the entire medium was sterilized by filtration. […] […] was grown on potato dextrose agar in 9 cm diameter petri dishes for 7 days. Sterile deionized water (20 mL) was added to a culture plate and spores suspended by scraping the surface gently with a sterile plastic loop. The resulting suspension was filtered through a double layer of sterile cheesecloth. Filtered spore suspension (5 mL) was centrifuged in a bench centrifuge at 2000 rpm for 2 min. […] Microtiter plates were inoculated with 100 μL of this spore suspension and the plates incubated at 25° C. for 72 h before assessing fungal growth by measuring light scattering in a NepheloStar plate reader. Growth inhibition was determined by comparing growth in the presence of test compound with growth in control wells lacking test compound. Results for growth inhibition by test compounds in copper-plus medium (“% Inhn. Plus Copper Observed”) were compared with predicted values (“% Inhn. Plus Copper Predicted”) that were calculated using the formula set forth by S. R. […] Minus Copper Observed”) and the inhibition attributed to copper chloride alone, as determined by comparing growth in copper-minus and copper-plus media without any test compound across experiments. Results illustrate that hydrazones and copper produce a synergistic fungitoxic effect towards […].

A further data set has as its system Ustilago maydis. The data set is described as follows: In vitro fungitoxicity in copper-minus and copper-plus medium. The data set is classed as cell-based. Conditions: CuCl2 10 μM, without test compound. As to the method:
Test compounds were dissolved in dimethylsulfoxide (DMSO) at 200 μg/mL and 1 μL aliquots were added to two wells of flat-bottomed 96-well microtiter plates. […] Control wells, included for each medium, received 1 uL DMSO and 100 μL of medium. Ustilago maydis was grown in 50 mL potato dextrose broth with shaking at 25° C. for 24 h. A 10 mL aliquot of the culture was centrifuged at 2000 rpm for 2 min, resuspended in 10 mL of sterile Chelex 100-treated water, and centrifuged again. […] Microtiter plate wells containing test compound of DMSO (control) as described above were inoculated with 100 μL of this spore suspension and the plates incubated at 25° C. for 48 h before assessing fungal growth by measuring light scattering in a NepheloStar plate reader. Growth inhibition was determined by comparing growth in the presence of test compound with growth in control wells lacking test compound. […] Plus Copper Observed”) were compared with predicted results (“% Inhn. Plus Copper Predicted”) that were calculated using the formula set forth by S. R. […] Minus Copper Observed”) and the inhibition attributed to copper chloride alone, as determined by comparing growth in copper-minus and copper-plus media without any test compound. Results illustrate that hydrazones and copper produce a synergistic fungitoxic effect towards Ustilago maydis.

A further data set has as its system Phytophthora capsici. The experiment in a line: In vitro fungitoxicity in copper-minus AS and copper-plus AS medium. The format is cell-based. Conditions: CuCl2 50 uM, without test compound, across experiments. As to the method:
Plates were inoculated with 7-mm plugs from a 1-week old culture, incubated at 25° C. in the dark for 3 days, and then placed under fluorescent lights for 4 days to induce sporulation. Zoospore release from sporangia was induced by adding 15 mL of sterile deionized water (which had been treated with Chelex 100 resin using 0.5 g resin per liter of water by stirring at room temperature for 1 h) to each plate, and incubating for 10 min at 25° C. followed by 20 min at 4° C. The plates were returned to 25° C. for 10 min and the aqueous suspension of released zoospores was recovered. The zoospore suspension was adjusted to 5×10^4 spores/mL by dilution into Chelex 100-treated water. Microtiter plates were inoculated with 100 μL of spore suspension and incubated at 25° C. for 48 h before assessing fungal growth by measuring light scattering in a NepheloStar plate reader. Growth inhibition was determined by comparing growth in the presence of test compound with growth in control wells lacking test compound. Results for growth inhibition by test compounds in copper-plus AS medium (“% Inhn. Plus Copper Observed”) were compared with predicted values (“% Inhn. Plus Copper Predicted”) that were calculated using the formula set forth by S. R. […]

The subject of data set [3] is Septoria tritici isolate USA-184. The experiment in a line: In vitro fungitoxicity in copper-minus and copper-plus medium. The format is cell-based. Conditions: CuCl2 1 μM, without test compound. The procedure: Test compounds were dissolved in dimethylsulfoxide (DMSO) at 10 μg/mL and 1 μL aliquots were added to two wells of flat-bottomed 96-well microtiter plates. […] Control wells, included for each medium, received 1 uL DMSO and 100 μL of medium. Septoria tritici isolate USA-184 was grown on potato dextrose agar at 18° C. under black lights for 3 days. A loopful of spores was transferred from the culture to a 15 mL tube containing 5 mL of sterile Chelex-treated water. The spores were centrifuged at 2000 rpm for 2 min, resuspended in 10 mL water, and centrifuged again. […] Microtiter plate wells containing test compound of DMSO (control) as described above were inoculated with 100 μL of this spore suspension and the plates incubated at 25° C. for 90 h before assessing fungal growth by measuring light scattering in a NepheloStar plate reader. Growth inhibition was determined by comparing growth in the presence of test compound with growth in control wells lacking test compound. […] Plus Copper Observed”) were compared with predicted results (“% Inhn. Plus Copper Predicted”) that were calculated using the formula set forth by S. R. […] Minus Copper Observed”) and the inhibition attributed to copper chloride alone, as determined by comparing growth in copper-minus and copper-plus media without any test compound. […]

For another data set, the system named is Phytophthora infestans. The format is in vivo. Conditions: 50 ppm hydrazone with 50 μM CuCl2.2H2O, applied 24 h before inoculation, tomato plants, 7 days after inoculation.

As for `O=C(NN=Cc1ccccc1O)c1ccccc1O` [o-hydroxybenzaldehyde-N-salicyloylhydrazone], the antimicrobial activity entry in data set [1] is listed as “Antimicrobial activity has been reported”.
As for `[Cl][Cu][Cl]` [CuCl2, copper chloride], the “LEPTNO % Inhn. copper chloride alone” value in data set [2] (CuCl2 10 μM, without test compound, across experiments) is 7.1 ± 6.0%. In addition, the “% Inhn. copper chloride alone” value in the data set on Ustilago maydis was found to be 11.9%. Besides, in the data set with Phytophthora capsici, the “% Inhn copper chloride alone” value is 4.5 ± 7.9%. In addition, the “% Inhibition copper chloride alone” value in data set [3] is 0%; in data set [3] (listed as copper chloride) it was “no effect on growth”.
As a reminder, the melting point is the temperature, or range, at which the solid turns liquid. Turning to `O=C(N/N=C/c1cccc(C(F)(F)F)c1O)c1ccc(C(F)(F)F)cc1O` [Compound 42], the melting point was in the range of 248 to 253 °C. Moreover, in the data set on Phytophthora infestans, the “TLB % Control” value turned out to be 100.0%. For the same compound, the “LEPTNO % Inhn. Plus Copper Observed” value in data set [2] (0.05 μg/mL compound, copper-plus medium (CuCl2, 10 μM), 72 h) is 98.4%. Besides, the inhibition of growth at 0.05 µg/mL in data set [2] (Parastagonospora nodorum, 0.05 μg/mL compound, copper-minus medium, 72 h, read-out: LEPTNO % Inhn. Minus Copper Observed) was determined as 8.8%.
